Test results reported in US20100078393A1, “BIOCIDAL COMPOSITIONS AND METHODS OF USE” (priority 2008, published 2010).

Experiments:
[1] = system: Bacillus subtillus ATCC 8473; assay: Biocidal efficacy against aerobic bacteria, log reduction after 1 hour at 37° C.; type: cell-based; settings: for Concentration required to achieve 3 log bacterial reduction in 1 hour, used in combination: active weight ratio 1:6; for Concentration required to achieve 3 log bacterial reduction in 1 hour, used alone: ppm active
Experimental: (§1) The synergy indexes reported in the following examples are calculated using the following equation:
(§2) Synergy Index=Ca/CA+Cb/CB
(§3) A synergy index (SI) of 1 indicates additivity, a synergy index of less than 1 indicates synergy, and a synergy index greater than 1 indicates antagonism.
(§4) Various methods known to those skilled in the art can be used for evaluating biocidal efficacy. In some of the examples below, a serial dilution technique is used, which determines viable bacteria remaining after a treatment regimen. The method is based or adapted (e.g., for high temperature testing or for the presence of sulfide) from the methodology described in inventor's pending international application PCT/US08/075755, filed Sep. 10, 2008, which is incorporated herein by reference.
(§5) A sterile NaCl solution (0.85%) is contaminated with bacterial inoculums at final bacterial concentration of approximately 10^6 CFU/ml. Then, biocide solution (single or in combination) is added into the bacterial suspension at various concentrations and immediately mixed well. After the mixtures are incubated at 37° C. for 1 hour, the viable bacteria left in the solution are determined. Bacterial log reduction is then calculated.

[2] = system: Enterobacter aerogenes ATCC 13048; assay: as above; type: cell-based; settings: for Concentration required to achieve 3 log bacterial reduction in 1 hour, used in combination: active weight ratio 1:6; for Concentration required to achieve 3 log bacterial reduction in 1 hour, used alone: ppm active
Experimental: as §1, §2, §3, §4, §5

[3] = system: Escherichia coli ATCC 11229; assay: as above; type: cell-based; settings: for Concentration required to achieve 3 log bacterial reduction in 1 hour, used in combination: active weight ratio 1:6; for Concentration required to achieve 3 log bacterial reduction in 1 hour, used alone: ppm active
Experimental: as §1, §2, §3, §4, §5

[4] = system: Klebsiella pneumoniae ATCC 8308; assay: as above; type: cell-based; settings: for Concentration required to achieve 3 log bacterial reduction in 1 hour, used in combination: active weight ratio 1:6; for Concentration required to achieve 3 log bacterial reduction in 1 hour, used alone: ppm active
Experimental: as §1, §2, §3, §4, §5

[5] = system: Pseudomonas aeruginosa ATCC 10145; assay: as above; type: cell-based; settings: for Concentration required to achieve 3 log bacterial reduction in 1 hour, used in combination: active weight ratio 1:6; for Concentration required to achieve 3 log bacterial reduction in 1 hour, used alone: ppm active
Experimental: as §1, §2, §3, §4, §5

[6] = system: Pseudomonas putida ATCC 49128; assay: as above; type: cell-based; settings: for Concentration required to achieve 3 log bacterial reduction in 1 hour, used in combination: active weight ratio 1:6; for Concentration required to achieve 3 log bacterial reduction in 1 hour, used alone: ppm active
Experimental: as §1, §2, §3, §4, §5

[7] = system: Staphylococcus aureus ATCC 6538; assay: as above; type: cell-based; settings: for Concentration required to achieve 3 log bacterial reduction in 1 hour, used in combination: active weight ratio 1:6; for Concentration required to achieve 3 log bacterial reduction in 1 hour, used alone: ppm active
Experimental: as §1, §2, §3, §4, §5

[8] = system: oil field isolated anaerobic SRB consortium; assay: Biocidal efficacy against anaerobic SRB at 40° C., serial dilution method; type: cell-based, sulfate-reducing bacteria (SRB); settings: for Concentration required for complete bacterial kill in 1 hour, used alone / Concentration required for 3 log bacterial kill in 2 hours, used alone: ppm active; for Concentration required for complete bacterial kill in 1 hour, used alone: 40° C.; for Concentration required for 3 log bacterial kill in 2 hours, used in combination: concentration of the labelled component
Experimental: as §1, §2, §3, §4
Inside an anaerobic chamber (Bactron III), a deaerated sterile salt solution (3.1183 g of NaCl, 1.3082 mg of NaHCO3, 47.70 mg of KCl, 72.00 mg of CaCl2, 54.49 mg of MgSO4, 172.28 mg of Na2SO4, 43.92 mg of Na2CO3 in 1 L water) is contaminated with an oil field isolated anaerobic SRB consortium at final bacterial concentrations of about 10^7 CFU/mL. […] […] Bacterial log reduction is then calculated.

[9] = concentration of the labelled component in glutaraldehyde + 4,4-dimethyl-oxazolidine combination
[10] = concentration of the labelled component in glutaraldehyde + 7-ethyl-bicyclooxazolidine combination

SMILES	Concentration required to achieve 3 log bacterial reduction in 1 hour, used in combination [1, 9] [ppm]	Concentration required to achieve 3 log bacterial reduction in 1 hour, used alone [1] [ppm]	Concentration required to achieve 3 log bacterial reduction in 1 hour, used in combination [2, 9] [ppm]	Concentration required to achieve 3 log bacterial reduction in 1 hour, used alone [2] [ppm]	Concentration required to achieve 3 log bacterial reduction in 1 hour, used in combination [3, 9] [ppm]	Concentration required to achieve 3 log bacterial reduction in 1 hour, used alone [3] [ppm]	Concentration required to achieve 3 log bacterial reduction in 1 hour, used in combination [4, 9] [ppm]	Concentration required to achieve 3 log bacterial reduction in 1 hour, used alone [4] [ppm]	Concentration required to achieve 3 log bacterial reduction in 1 hour, used in combination [5, 9] [ppm]	Concentration required to achieve 3 log bacterial reduction in 1 hour, used alone [5] [ppm]	Concentration required to achieve 3 log bacterial reduction in 1 hour, used in combination [6, 9] [ppm]	Concentration required to achieve 3 log bacterial reduction in 1 hour, used alone [6] [ppm]	Concentration required to achieve 3 log bacterial reduction in 1 hour, used in combination [7, 9] [ppm]	Concentration required to achieve 3 log bacterial reduction in 1 hour, used alone [7] [ppm]	Concentration required for complete bacterial kill in 1 hour, used alone [8] [ppm]	Concentration required to achieve 3 log bacterial reduction in 1 hour, used in combination [1, 10] [ppm]	Concentration required to achieve 3 log bacterial reduction in 1 hour, used in combination [2, 10] [ppm]	Concentration required to achieve 3 log bacterial reduction in 1 hour, used in combination [3, 10] [ppm]	Concentration required to achieve 3 log bacterial reduction in 1 hour, used in combination [4, 10] [ppm]	Concentration required to achieve 3 log bacterial reduction in 1 hour, used in combination [5, 10] [ppm]	other results
CC1(C)COCN1 [4,4-dimethyl-oxazolidine]	111.3	296.6	111.3	296.6	111.3	197.8	74.2	197.8	111.3	296.6	111.3	296.6	111.3	296.6	>1600.0	–	–	–	–	–	–
CCC12COCN1COC2 [7-ethyl-bicyclooxazolidine, 5-ethyl-1-aza-3,7-dioxabicyclo[3.3.0]octane]	–	296.6	–	296.6	–	296.6	–	197.8	–	296.6	–	296.6	–	296.6	–	74.2	111.3	74.2	74.2	111.3	Concentration required to achieve 3 log bacterial reduction in 1 hour, used in combination [6, 10]: 111.3 ppm; Concentration required to achieve 3 log bacterial reduction in 1 hour, used in combination [7, 10]: 111.3 ppm; Concentration required for 3 log bacterial kill in 2 hours, used in combination ([8]; glutaraldehyde:7-ethyl-bicyclooxazolidine weight ratio 1:1): 5.9 ppm; Concentration required for 3 log bacterial kill in 2 hours, used in combination ([8]; glutaraldehyde:7-ethyl-bicyclooxazolidine weight ratio 1:2): 11.9 ppm; Concentration required for 3 log bacterial kill in 2 hours, used in combination ([8]; glutaraldehyde:7-ethyl-bicyclooxazolidine weight ratio 1:5): 29.6 ppm; Concentration required for 3 log bacterial kill in 2 hours, used in combination ([8]; glutaraldehyde:7-ethyl-bicyclooxazolidine weight ratio 1:10): 39.5 ppm; Concentration required for 3 log bacterial kill in 2 hours, used in combination ([8]; glutaraldehyde:7-ethyl-bicyclooxazolidine weight ratio 1:20): 52.7 ppm; Concentration required for 3 log bacterial kill in 2 hours, used in combination ([8]; glutaraldehyde:7-ethyl-bicyclooxazolidine weight ratio 2:1): 4.4 ppm; Concentration required for 3 log bacterial kill in 2 hours, used in combination ([8]; glutaraldehyde:7-ethyl-bicyclooxazolidine weight ratio 5:1): 1.2 ppm; Concentration required for 3 log bacterial kill in 2 hours, used in combination ([8]; glutaraldehyde:7-ethyl-bicyclooxazolidine weight ratio 10:1): 0.6 ppm; Concentration required for 3 log bacterial kill in 2 hours, used in combination ([8]; glutaraldehyde:7-ethyl-bicyclooxazolidine weight ratio 20:1): 0.3 ppm; Concentration required for 3 log bacterial kill in 2 hours, used alone [8]: >2025 ppm
O=CCCCC=O [Glutaraldehyde]	18.6	44.5	18.6	44.5	18.6	44.5	12.4	44.5	18.6	44.5	18.6	44.5	18.6	44.5	26.3	12.4	18.6	12.4	12.4	18.6	Concentration required to achieve 3 log bacterial reduction in 1 hour, used in combination [6, 10]: 18.6 ppm; Concentration required to achieve 3 log bacterial reduction in 1 hour, used in combination [7, 10]: 18.6 ppm; Concentration required for 3 log bacterial kill in 2 hours, used alone [8]: 8.9 ppm
